The results in this text go back to US5464617A, “β-lactam compounds” (Hoffmann-La Roche Inc., priority 1994, dated 1995).

Like-named read-outs stand apart in the source and are kept apart here.

Test [1] relates to Citrobacter freundii 1982. The experiment in a line: MIC in vitro of a 1:4 combination of ceftriaxone with a compound of formula I (Test D). It counts as cell-based. To be noted: 1:4 combination of ceftriaxone with the compound. As to the method:
The minimum inhibitory concentration in vitro ([…]) of a 1:4 combination of ceftriaxone with a compound of formula I against Citrobacter freundii 1982 was measured and compiled in Table 2 hereinafter.

A further test relates to E. coli 1346. The experiment in a line: Antibacterial activity of the products per se, serial dilution method in liquid medium (Test E). Particulars: Table 4; test E, product per se. It counts as cell-based. From the text:
The antibacterial activity of the products per se is illustrated on the basis of Table 3 hereinafter, the minimum inhibitory concentration […] in vitro against E. coli 1346 being determined using the serial dilution method in liquid medium: […]

Another test concerns the target β-lactamase (Citrobacter freundii, UniProt P05193). The experiment in a line: Determination of the β-lactamase inhibiting activity (Test C): inhibition of nitrocefin cleavage by isolated β-lactamase. It counts as biochemical, Citrobacter freundii 1982. To be noted: pH 7.0, 37° C. As to the method:
Various β-lactamases can be isolated from penicillin- or cephalosporin-resistant bacterial strains such as Klebsiella pneumoniae NCTC 418, Proteus vulgaris 1028, Bacillus licheniformis 749/C, Escherichia coli SNO1, Pseudomonas aeruginosa 18SH and Citrobacter freundii 1203. For this purpose, the corresponding strains are cultivated in Tryptic Soy Broth (Difco) and harvested by centrifugation in the last logarithmic growth phase (when necessary 50-100 mg/l of ampicillin are added to the medium towards the end of the log-phase in order to induce the β-lactamase). The thus-obtained bacterial mass is treated with 20 mM Tris-HCl buffer (pH 7.0); the cells are broken open with a French press while cooling. The mixture is centrifuged (20,000 r/min.) for 20-30 minutes and a clear crude extract is obtained. The purification of the proteins is effected according to the method of Cartwright, S. J. & Waley, S. G. [Biochem. J. 221, 505-512 (1980)] and, for B. lichenformis, Ellerby, L. M. et al. [Biochemistry 29, 5797-5806 (1990)].
The determination of the activity of the isolated β-lactamases can be carried out according to the method of O'Callaghan, C. H. et al. [Antimicr. Ag. Chemother. […] The cleavage of the substrate, which is accompanied by a change in colour, is effected at 37° C. and is followed quantitatively at 482 nm using a spectral photometer. […]

Test [2] deals with Citrobacter freundii 1982. The experiment in a line: MIC in vitro of a 1:4 combination of ceftriaxone with a compound of formula I (Test D). To be noted: Table 2; ceftriaxone alone (control). It counts as cell-based.

Sequence of β-lactamase (P05193 21-381): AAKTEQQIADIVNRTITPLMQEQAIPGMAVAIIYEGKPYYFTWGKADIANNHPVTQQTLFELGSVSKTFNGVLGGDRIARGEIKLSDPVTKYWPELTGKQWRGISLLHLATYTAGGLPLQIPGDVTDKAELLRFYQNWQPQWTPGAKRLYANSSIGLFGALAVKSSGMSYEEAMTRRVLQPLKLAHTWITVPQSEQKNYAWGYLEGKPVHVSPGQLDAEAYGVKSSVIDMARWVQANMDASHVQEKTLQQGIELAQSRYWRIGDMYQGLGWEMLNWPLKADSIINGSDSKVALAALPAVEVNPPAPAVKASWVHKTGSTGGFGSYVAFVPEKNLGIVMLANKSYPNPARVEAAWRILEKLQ

Regarding “(1aS,3aR,6bS)-5-(Carbamoyloxymethyl)-2-(4-hydroxyphenylcarbamoyl)-1-oxo-1,1a,2,3,3a,6b-hexahydro-4-oxa-2,6a-diazacyclobut[cd]indene-6-carboxylic acid sodium salt [31(g)]”, the “MIC C. freundii 1982 (D)” value in test [1] (Table 4, test D) was determined as 16 µg/mL. The “MIC E. coli 1346 (E)” value in the test on E. coli 1346 was 0,5 μg/ml. For the same compound, on β-lactamase (Table 4, test C, nitrocefin, 15 minutes pre-incubation, read-out: IC 50 (C)), the IC50 came to 51 µM.

In the case of “(1aS,3aR,6bR)-2-[(R)- and [(S)-1,1-Dioxo-tetrahydrothien-3-ylcarbamoyl]-5-methylsulphonyloxy-1-oxo-1a,2,3,3a,4,6b-hexahydro-1H-2,6a-diazacyclobut[cd]indene-6-carboxylic acid sodium salt [9(g)]”, the “MIC C. freundii 1982” value in test [1] (Table 2) stood at 0.25 µg/mL. For the same compound, on β-lactamase (Table 1, nitrocefin substrate, 15 minutes pre-incubation of β-lactamase with inhibitor, read-out: IC 50), the IC50 was 0.027 µM.

With `CO/N=C(\C(=O)N[C@@H]1C(=O)N2C(C(=O)O)=C(CSc3nc(=O)c(=O)[nH]n3C)CS[C@H]12)c1csc(N)n1` [Ceftriaxone, ceftriaxone], in test [2], the “MIC C. freundii 1982” value was 128 µg/mL.
